Data reported in patent publication US11739074B2, “Ras inhibitors” (Revolution Medicines, Inc., priority 2019, dated 2023).
pEC50, pIC50: −log10 of the molar value. Like-named read-outs stand apart in the source and are kept apart here.

Legend:
Format in all cases: cell-based
[1] = tested on: NCI-H358 (K-Ras G12C); experiment: CellTiter-Glo cell viability assay, H358; details: Homo sapiens, NCI-H358, 120 h
Method in brief: (§1)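 Luminescence from CellTiter-Glo serves as the viability read-out after cells are treated with compound for 5 days. Each well's signal is divided by the DMSO average and multiplied by 100, and curves are fitted by four-parameter logistic regression.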

[2] = tested on: AsPC-1 (K-Ras G12D); experiment: CellTiter-Glo cell viability assay, AsPC-1; details: Homo sapiens, ASPC1, 120 h
Method in brief: as §1

[3] = tested on: AsPC-1 (K-Ras G12D); experiment: Potency assay: pERK in AsPC-1 cells; details: Homo sapiens
[4] = read-out: H358 Cell Viability IC50, NCI-H358, K-Ras G12C, 5-day treatment
[5] = read-out: AsPC-1 Cell Viability IC50, AsPC-1, K-Ras G12D, 5-day treatment
[6] = ASPC1, read-out: pERK EC50 (AsPC-1 KRAS G12D)
[7] = NCI-H358, K-Ras G12C, 5-day treatment, read-out: H358 Cell Viability IC50
[8] = AsPC-1, K-Ras G12D, 5-day treatment, read-out: AsPC-1 Cell Viability IC50
[9] = ASPC1, AsPC-1 cells, K-Ras G12D, read-out: pERK EC50 (AsPC-1 KRAS G12D)

| SMILES | pIC50 [1, 4] | pIC50 [2, 5] | pEC50 [3, 6] | pIC50 [1, 7] | pIC50 [2, 8] | pEC50 [3, 9] |
| --- | --- | --- | --- | --- | --- | --- |
| CCn1c(-c2cccnc2[C@H](C)OC)c2c3cc(ccc31)-c1cc(O)cc(c1)C[C@H](NC(=O)[C@H](C(C)C)N(C)C(=O)CN(C)C(=O)[C@H]1CN1CC(=O)N(C)C)C(=O)N1CCC[C@H](N1)C(=O)OCC(C)(C)C2 (stereo partly drawn) [Compound 270] | 7.00 to 8.00 | 6.00 to 7.00 | > 5.30 | – | – | – |
| CCn1c(-c2cccnc2[C@H](C)OC)c2c3cc(ccc31)-c1cc(O)cc(c1)C[C@H](NC(=O)[C@H](C(C)C)N(C)C(=O)CN(C)C(=O)[C@H]1CN1CCCC#N)C(=O)N1CCC[C@H](N1)C(=O)OCC(C)(C)C2 (stereo partly drawn) [Compound 273] | > 8.00 | 6.00 to 7.00 | > 5.30 | – | – | – |
| CCn1c(-c2cccnc2[C@H](C)OC)c2c3cc(ccc31)-c1cc(O)cc(c1)C[C@H](NC(=O)[C@H](C(C)C)N(C)C(=O)CN(C)C(=O)[C@@H]1CN1CCCC#N)C(=O)N1CCC[C@H](N1)C(=O)OCC(C)(C)C2 (stereo partly drawn) [Compound 274] | > 8.00 | 6.00 to 7.00 | > 5.30 | – | – | – |
| CCn1c(-c2cccnc2[C@H](C)OC)c2c3cc(ccc31)-c1cc(O)cc(c1)C[C@H](NC(=O)[C@H](C(C)C)N(C)C(=O)CN(C)C(=O)[C@@H]1CN1C1COC1)C(=O)N1CCC[C@H](N1)C(=O)OCC(C)(C)C2 (stereo partly drawn) [Compound 276] | 7.00 to 8.00 | 5.00 to 6.00 | > 5.30 | – | – | – |
| CCn1c(-c2cccnc2[C@H](C)OC)c2c3cc(ccc31)-c1cc(O)cc(c1)C[C@H](NC(=O)[C@H](C(C)C)N(C)C(=O)CN(C)C(=O)[C@H]1CN1CC1COC1)C(=O)N1CCC[C@H](N1)C(=O)OCC(C)(C)C2 (stereo partly drawn) [Compound 277] | 7.00 to 8.00 | 6.00 to 7.00 | > 5.30 | – | – | – |
| CCn1c(-c2cccnc2[C@H](C)OC)c2c3cc(ccc31)-c1cc(O)cc(c1)C[C@H](NC(=O)[C@H](C(C)C)N(C)C(=O)CN(C)C(=O)[C@H]1CN1CC1(C)COC1)C(=O)N1CCC[C@H](N1)C(=O)OCC(C)(C)C2 (stereo partly drawn) [Compound 279] | > 8.00 | 6.00 to 7.00 | > 5.30 | – | – | – |
| CCn1c(-c2cccnc2[C@H](C)OC)c2c3cc(ccc31)-c1cc(O)cc(c1)C[C@H](NC(=O)[C@H](C(C)C)N(C)C(=O)CN(C)C(=O)[C@@H]1CN1CC1(C)COC1)C(=O)N1CCC[C@H](N1)C(=O)OCC(C)(C)C2 (stereo partly drawn) [Compound 280] | > 8.00 | 5.00 to 6.00 | > 5.30 | – | – | – |
| CCn1c(-c2cccnc2[C@H](C)OC)c2c3cc(ccc31)-c1cc(O)cc(c1)C[C@H](NC(=O)[C@H](C(C)C)N(C)C(=O)CN(C)C(=O)[C@@H]1N[C@H]1C1COC1)C(=O)N1CCC[C@H](N1)C(=O)OCC(C)(C)C2 [Compound 283] | 7.00 to 8.00 | 6.00 to 7.00 | > 5.30 | – | – | – |
| CCn1c(-c2cccnc2[C@H](C)OC)c2c3cc(ccc31)-c1cc(O)cc(c1)C[C@H](NC(=O)[C@H](C(C)C)N(C)C(=O)CN(C)C(=O)[C@H]1C[C@@H]3N[C@@H]3C1)C(=O)N1CCC[C@H](N1)C(=O)OCC(C)(C)C2 [Compound 285] | – | – | – | 6.00 to 7.00 | 7.00 to 8.00 | > 5.30 |
| CCn1c(-c2cccnc2[C@H](C)OC)c2c3cc(ccc31)-c1cc(O)cc(c1)C[C@H](NC(=O)[C@H](C(C)C)N(C)C(=O)CN(C)C(=O)[C@@H]1N[C@@H]1C1CCC1)C(=O)N1CCC[C@H](N1)C(=O)OCC(C)(C)C2 [Compound 287] | 7.00 to 8.00 | 6.00 to 7.00 | > 5.30 | – | – | – |
| CCn1c(-c2cccnc2[C@H](C)OC)c2c3cc(ccc31)-c1cc(O)cc(c1)C[C@H](NC(=O)[C@H](C(C)C)N(C)C(=O)CN(C)C(=O)[C@H]1N[C@H]1C1CCC1)C(=O)N1CCC[C@H](N1)C(=O)OCC(C)(C)C2 [Compound 288] | 7.00 to 8.00 | 6.00 to 7.00 | > 5.30 | – | – | – |
| CCn1c(-c2cccnc2[C@H](C)OC)c2c3cc(ccc31)-c1csc(n1)C[C@H](NC(=O)[C@H](C(C)C)N(C)C(=O)N1CCC[C@H](N(C)C(=O)[C@@H]3CN3)C1)C(=O)N1CCC[C@H](N1)C(=O)OCC(C)(C)C2 [Compound 292] | – | – | – | 7.00 to 8.00 | 5.00 to 6.00 | > 5.30 |
| CCn1c(-c2cccnc2[C@H](C)OC)c2c3cc(ccc31)-c1csc(n1)C[C@H](NC(=O)[C@H](C(C)C)N(C)C(=O)N(C)CC1CN(C(=O)[C@H]3CN3)C1)C(=O)N1CCC[C@H](N1)C(=O)OCC(C)(C)C2 [Compound 293] | – | – | – | 7.00 to 8.00 | 5.00 to 6.00 | > 5.30 |
| CCn1c(-c2cccnc2[C@H](C)OC)c2c3cc(ccc31)-c1csc(n1)C[C@H](NC(=O)[C@H](C(C)C)N(C)C(=O)N(C)CC1CN(C(=O)[C@@H]3CN3)C1)C(=O)N1CCC[C@H](N1)C(=O)OCC(C)(C)C2 [Compound 294] | – | – | – | 6.00 to 7.00 | 5.00 to 6.00 | > 5.30 |
| CCn1c(-c2cccnc2[C@H](C)OC)c2c3cc(ccc31)-c1csc(n1)C[C@H](NC(=O)[C@H](C(C)C)N(C)C(=O)N(C)[C@H]1CCN(C(=O)[C@H]3CN3)C1)C(=O)N1CCC[C@H](N1)C(=O)OCC(C)(C)C2 [Compound 296] | – | – | – | 7.00 to 8.00 | 5.00 to 6.00 | > 5.30 |
| CCn1c(-c2cccnc2[C@H](C)OC)c2c3cc(ccc31)-c1csc(n1)C[C@H](NC(=O)[C@H](C(C)C)N(C)C(=O)N1CCN(C(=O)[C@H]3CN3)[C@@H](C)C1)C(=O)N1CCC[C@H](N1)C(=O)OCC(C)(C)C2 [Compound 297] | – | – | – | 7.00 to 8.00 | 6.00 to 7.00 | > 5.30 |
| CCn1c(-c2cccnc2[C@H](C)OC)c2c3cc(ccc31)-c1csc(n1)C[C@H](NC(=O)[C@H](C(C)C)N(C)C(=O)N1CCN(C(=O)[C@@H]3CN3)[C@@H](C)C1)C(=O)N1CCC[C@H](N1)C(=O)OCC(C)(C)C2 [Compound 298] | – | – | – | 7.00 to 8.00 | 6.00 to 7.00 | > 5.30 |
| CCn1c(-c2cccnc2[C@H](C)OC)c2c3cc(ccc31)-c1csc(n1)C[C@H](NC(=O)[C@H](C(C)C)N(C)C(=O)N1CCN(C(=O)[C@H]3CN3)[C@H](C)C1)C(=O)N1CCC[C@H](N1)C(=O)OCC(C)(C)C2 [Compound 299] | – | – | – | > 8.00 | 6.00 to 7.00 | > 5.30 |
| CCn1c(-c2cccnc2[C@H](C)OC)c2c3cc(ccc31)-c1csc(n1)C[C@H](NC(=O)[C@H](C(C)C)N(C)C(=O)N1CCN(C(=O)[C@@H]3CN3)[C@H](C)C1)C(=O)N1CCC[C@H](N1)C(=O)OCC(C)(C)C2 [Compound 300] | – | – | – | 7.00 to 8.00 | 6.00 to 7.00 | > 5.30 |
| CCn1c(-c2cccnc2[C@H](C)OC)c2c3cc(ccc31)-c1csc(n1)C[C@H](NC(=O)[C@H](C(C)C)N(C)C(=O)N1CCN(C(=O)[C@H]3CN3)C[C@H]1C)C(=O)N1CCC[C@H](N1)C(=O)OCC(C)(C)C2 [Compound 301] | – | – | – | > 8.00 | 6.00 to 7.00 | > 5.30 |
| CCn1c(-c2cccnc2[C@H](C)OC)c2c3cc(ccc31)-c1csc(n1)C[C@H](NC(=O)[C@H](C(C)C)N(C)C(=O)N1CCN(C(=O)[C@@H]3CN3)C[C@H]1C)C(=O)N1CCC[C@H](N1)C(=O)OCC(C)(C)C2 [Compound 302] | – | – | – | 7.00 to 8.00 | 6.00 to 7.00 | > 5.30 |
| CCn1c(-c2cccnc2[C@H](C)OC)c2c3cc(ccc31)-c1cc(O)cc(c1)C[C@H](NC(=O)[C@H](C1CCCC1)N(C)C(=O)CN(C)C(=O)[C@H]1N[C@H]1C1(C#N)CC1)C(=O)N1CCC[C@H](N1)C(=O)OCC(C)(C)C2 [Compound 316] | – | – | – | 7.00 to 8.00 | 5.00 to 6.00 | > 5.30 |
| CCn1c(-c2cccnc2[C@H](C)OC)c2c3cc(ccc31)-c1cc(O)cc(c1)C[C@H](NC(=O)[C@H](C1CCCC1)N(C)C(=O)CN(C)C(=O)[C@H]1[C@@H](C3CC3)N1CCCOC)C(=O)N1CCC[C@H](N1)C(=O)OCC(C)(C)C2 (stereo partly drawn) [Compound 317] | – | – | – | 7.00 to 8.00 | 7.00 to 8.00 | > 5.30 |
| CCn1c(-c2cccnc2[C@H](C)OC)c2c3cc(ccc31)-c1cc(cc(C(F)F)c1)C[C@H](NC(=O)[C@H](C1CCCC1)N(C)C(=O)CN(C)C(=O)[C@@H]1N[C@@H]1C1CC1)C(=O)N1CCC[C@H](N1)C(=O)OCC(C)(C)C2 [Compound 320] | – | – | – | 6.00 to 7.00 | 6.00 to 7.00 | > 5.30 |
| CCn1c(-c2cc(N3CCN(C)CC3)cnc2[C@H](C)OC)c2c3cc(ccc31)-c1cc(O)cc(c1)C[C@H](NC(=O)[C@H](C1CCCC1)N(C)C(=O)CN(C)C(=O)[C@@H]1N[C@@H]1C1CC1)C(=O)N1CCC[C@H](N1)C(=O)OCC(C)(C)C2 [Compound 325] | – | – | – | > 8.00 | > 8.00 | > 5.30 |
